Data: ChEMBL document CHEMBL1132471, “Vancomycin binding to low-affinity ligands: delineating a minimum set of interactions necessary for high-affinity binding” (J Med Chem, 1999)

Assay: Affinity for Vancomycin (Exp I)

Row | Affinity | Compound
1 | 40 M⁻¹ | CC(=O)O[C@H](C)C(=O)O
2 | 15 M⁻¹ | CC(=O)O

Assay: Affinity for Vancomycin (Exp II)

Row | Affinity | Compound
3 | 80 M⁻¹ | CC(=O)NCC(=O)O
4 | 300 M⁻¹ | CC(=O)N[C@H](C)C(=O)O

Second part, the molecule before the results:

Row | Compound | Affinity
5 | C[C@@H](O)C(=O)O | 80 M⁻¹
6 | CC(=O)O | 30 M⁻¹
